Reference: ChEMBL document CHEMBL3507680, “University of Dundee, Gates Library screen for HepG2 cell viability”

Experiment: Human HepG2 cell viability assay in 384 well format
Type: toxicity, cell-based
Set-up: dose 125 nL, time 70.5 hour; cytotoxicity at 70.5 h: concentration not given beside the values
Conditions: HepG2 cells, read-out: Inhibition

Row | SMILES | cytotoxicity at 70.5 h [%]
1 | Cc1ncsc1C(=O)OCC1CCN(c2ccccc2)C1 (centres undefined) | -97.5
2 | CN(Cc1ccsc1)C(=O)Nc1ccc(S(C)(=O)=O)nc1 | 2.4
3 | CN(C)CCNc1cc(-c2ncccn2)c2cc[nH]c2n1 | -6.11
4 | COC(=O)CNC(=O)c1ccc(OC2CCN(S(C)(=O)=O)CC2)c(Cl)c1 | -4.88
5 | Cc1oc(CN(C)C(=O)c2ccc(Br)cc2)cc1C(=O)O | -8.74
6 | Cn1cc(CN2CCC(c3ccncc3)CC2)cn1 | -9.54
7 | CCCN(CC)C(=O)c1cc2c(c3ccccc3n2C)n1C(=O)N(C)C | 4.9
8 | Cn1c(NCC(O)c2ccccc2F)c(C#N)c(=O)n(C)c1=O (centres undefined) | -1.35
9 | CC(CCc1ccccc1)NC(=O)CN1CCOCC1 (centres undefined) | -3.3
10 | O=C(OCc1ccccc1)C1CCCN1Cc1nc(C2CC2)no1 (centres undefined) | -17.4
11 | FC(F)(F)c1cccnc1N1CCC(OC2CCOCC2)CC1 | -6.19
12 | Cc1nc(CCC(N)=O)cc(C2CCCCN2S(C)(=O)=O)n1 (centres undefined) | -1.31
13 | O=C(NCC1CC1)C1CCC2(CCN(C(=O)c3ccncc3)CC2)O1 (centres undefined) | 10.5
14 | c1ccc(-n2cc(CNC3CCc4ncnn4C3)nn2)cc1 (centres undefined) | -7.65
15 | Cc1nc(C(F)(F)F)nc(N2CCC(O)(C(=O)O)CC2)c1C | -6.27
16 | CCc1nnc(CN2CC(n3cccn3)C2)o1 | -4.74
17 | COc1ccc(CC(=O)NCCCc2nnc3nc(C)cc(C)n23)cc1 | -10.1
18 | Cc1cc(C(=O)NC(C)Cc2ccccc2Cl)n(C)n1 (centres undefined) | -7.08
19 | CN(C)C(=O)N1CCCC2(CCN(Cc3ccncc3)C2)C1 (centres undefined) | -7.12
20 | c1ccc(Cc2noc(CN3CCOC(Cn4cccn4)C3)n2)cc1 (centres undefined) | -3.64
21 | CC(C)N(CCS(C)(=O)=O)Cc1csc(-c2ccccc2F)n1 | -13.1
22 | CN(C)Cc1nc(C(C)(C)NC(=O)c2cccc3ccccc23)no1 | -7.53
23 | CNCc1ccc([C@@H]2CN(C(C)=O)C[C@H]2C(=O)N(C)C)cc1 | -1.57

Row | SMILES | cytotoxicity at 70.5 h [%]
24 | Cc1nc(-c2nnc[nH]2)sc1C(=O)N1CCCC1c1cccs1 (centres undefined) | -6.5
25 | CC1(c2ncc(CN3CCN(c4ccccn4)CC3)cn2)CCCCO1 (centres undefined) | -1.83
26 | COc1ccccc1CN1C(=O)O[C@@H]2CN(C(C)C)C[C@@H]21 | -0.224
27 | COc1cccc([C@@H]2CCN(Cc3cn(C)c4ccccc34)C[C@H]2O)c1 | -10.7
28 | CCn1cc(CN2CCCN(C(=O)c3sccc3C#N)CC2)cn1 | 37.5
29 | OCCN1CCCC(c2nccnc2Oc2ccc(F)cc2)C1 (centres undefined) | -2.84
30 | Nc1nc(CC(=O)N2CCCC(CCc3cccc(F)c3)C2)cc(=O)[nH]1 (centres undefined) | -12.2
31 | Cc1nn(CC(F)F)c2c1c(C(F)F)cc(=O)n2CC(=O)O | 23.6
32 | NC(=O)c1nc(CN2CCOC(C(F)(F)F)C2)no1 (centres undefined) | 11.5
33 | CNC(=O)C1CN(C(=O)c2ccccc2)Cc2cn(C)nc21 (centres undefined) | 26.9
34 | O=C(Nc1cnccn1)[C@@H]1COC[C@H]2CN(C3CCC3)C[C@H]21 | -87.9
35 | O=C(C1CCOC1)N1C[C@H]2CN(Cc3ccncc3)C(=O)[C@H]2C1 (some centres undefined) | -9.99
36 | CNS(=O)(=O)CC(=O)N1CCCc2cc(C(C)C)ccc21 | -98.6
37 | Cc1ccsc1CN(c1nc(CCN)nc2ccccc12)C1CC1 | 10.4
38 | CNc1nc(CNC(=O)Nc2cccc(CSC)c2)cs1 | -3.79
39 | CCn1cc(CN2CCCN(C(=O)c3sc(C)nc3C)CC2)cn1 | 4.77
40 | C[C@@]1(O)CCN(Cc2cc[nH]n2)C[C@H]1Oc1cccc(F)c1 | -2.59
41 | O=C(CCn1cncn1)NCCOc1cccc(Cl)c1 | -2.18
42 | O=C(CCN1CCOC(CNc2cccnn2)C1)NC1CCCCC1 (centres undefined) | 11.1
43 | Cc1cnc(CNc2ccccc2CN(C)C(=O)c2cccs2)o1 | 18.4
44 | COc1ccc(S(=O)(=O)N2Cc3c(CN(C)C)nn(C)c3C2)cc1 | -3.13
45 | Cc1cccc(CNc2n[nH]c(C)n2)c1 | -5.26
46 | NC(=O)N1CCC2(CC1)CC(=O)N(CC1CCCO1)c1ccccc12 (centres undefined) | 5.57

Row | SMILES | cytotoxicity at 70.5 h [%]
47 | CCc1cccc2cc(CN)c(=O)[nH]c12 | -10
48 | Fc1ccccc1Cc1noc(CN2CC[C@@H]3CCCC[C@H]3C2)n1 | -4.61
49 | CS(=O)(=O)c1nccn1Cc1ccncc1 | -4.41
50 | Cc1cc(C)c2c(c1)C(NCc1c(C)nn(C)c1N(C)C)CCO2 (centres undefined) | 3.6
51 | Cc1ccc(C(=O)N2CCn3cc(CN4CCCCC4)nc3C2)o1 | 35.2
52 | Cc1ccc(CN2CCc3[nH]nc(C(=O)N(C)C)c3C2)o1 | -0.827
53 | CCOC(=O)CNC(=O)N1CCOC(CCc2ccccc2)C1 (centres undefined) | 15.8
54 | CC(C(=O)Nc1nccs1)N1CCc2nn(C)c(=O)cc2C1 (centres undefined) | 20.7
55 | COC(=O)C(NC(=O)C1CC1)c1cc(F)ccc1F (centres undefined) | -0.233
56 | CCN1CCC(c2nc3ccc(NC(C)C)cn3n2)CC1 | -0.678
57 | O=C(c1ccoc1)N1CC[C@@H]2[C@H]1CCC(=O)N2c1ccccc1 | -7.05
58 | O=C(NCCc1coc(-c2ccc(F)cc2)n1)NCC1CCOC1 (centres undefined) | 20.9
59 | COC(=O)Cn1c(=O)nc2n1C(=O)N(c1cccc(Cl)c1)C2 | -5.07
60 | CCOCCN1Cc2ncn(C)c2C(COCC2CCOCC2)C1 (centres undefined) | -7.05
61 | NC(=O)c1ccc(C(=O)N2CCCCC2C2OCCO2)cc1 (centres undefined) | -10.6
62 | CCN(Cc1cnn(C)c1)S(=O)(=O)c1ccc(NC(=O)C(C)(C)C)cc1 | 2.92
63 | CCN(CC(=O)NC)C(=O)c1sc(Cc2ccccc2)nc1C | -11.7
64 | COc1ccc(Cn2nnnc2SCC2CCCN(C)C2)cc1 (centres undefined) | -8.49
65 | Cc1ccc(CN2CCOC3(COCCN(S(C)(=O)=O)C3)C2)s1 (centres undefined) | -6.35
66 | CCOC(=O)C1(NCC(=O)Nc2cc(C)ccc2OC)CCCC1 | 21.1
67 | CSc1ccccc1NC(=O)c1ccc(N2CCOCC2)nn1 | -3.96
68 | O=C(c1nc(N2CCCC2)ncc1Cl)N1CCN(Cc2ccsc2)CC1 | 29
69 | C1CC1c1nsc(N2CCN(C3CC3)CC2)n1 | 1.41

Row | SMILES | cytotoxicity at 70.5 h [%]
70 | Cc1nc2ccc(C(=O)N3CCn4c(nnc4C4CC4)C3)cc2nc1C | -4.74
71 | Cc1cc(C[C@@H]2COC[C@H]2NCc2ccc(Br)s2)on1 | 22.3
72 | OC(CN1CCN(CC2CCCCC2)CC1)c1ccccc1 (centres undefined) | -8.48
73 | CN(Cc1nnc(C2CC2)n1C)S(=O)(=O)c1ccc(F)c(C#N)c1 | -23.4
74 | NC(=O)NCC(=O)N1CCC2(CC1)c1ccccc1CC2O (centres undefined) | -11.6
75 | Cn1cnc(S(=O)(=O)N2CCOCC2)c1Cl | -3.62
76 | CCC(C)C(=O)NCc1c(C)nn(C)c1N1CCCN(C)CC1 (centres undefined) | 1.79
77 | CN(C)C(=O)NCc1cc(=O)n2c(n1)CN(Cc1ccoc1)CCC2 | 16.4
78 | Cc1nc(CNC(=O)Nc2ccc3c(c2)CCCN3C)sc1C | -0.336
79 | Cc1cc(CNc2ccnn2C)ccc1-n1cncn1 | -1.29
80 | CC(C)(NCC(=O)NCC1CC1)c1ccc2c(c1)OCCO2 | 15.5
81 | CC(C)N(C)Cc1cnc2n1CCN(CCc1ccccc1)C2 | 4.09
82 | Cn1cc(C(=O)NCC2CCN(C(=O)NCC(F)(F)F)CC2)cn1 | 2.26
83 | CCn1cnnc1CNC(=O)NCC(c1cccs1)N1CCCC1 (centres undefined) | -14
84 | O=C(CN1CCCC(c2ccn[nH]2)C1)Nc1nc2c(s1)CCC2 (centres undefined) | -2.76
85 | Cc1ccc(NC2CCN(C(=O)Cc3c(C)nn(C)c3C)CC2)nn1 | -1.21
86 | O=C(O)c1ccn(-c2ccccc2NS(=O)(=O)c2ccccc2)n1 | -0.995
87 | COc1ncccc1C(=O)N1CCCC1c1nc(-c2ccccc2)n[nH]1 (centres undefined) | -0.047
88 | Fc1cccc(-n2ccc(CN3CCCC3Cn3cccn3)n2)c1 (centres undefined) | -14.3
89 | CCN1C(=O)C(c2ccccc2)CC12CCN(S(C)(=O)=O)CC2 (centres undefined) | -9.88
90 | O=C(CCOc1ccccc1F)NC1CCCN(c2ccccn2)C1 (centres undefined) | -5.44
91 | CC1CN(C(=O)NCCc2nc(C(C)C)no2)CCO1 (centres undefined) | 10.3
92 | Cc1cc(N2CCOCC(Cc3ccc4[nH]ccc4c3)C2)ncn1 (centres undefined) | -9.7

Row | SMILES | cytotoxicity at 70.5 h [%]
93 | CC(NCc1ccc(OCC(N)=O)cc1)c1ccc(Cl)c(Cl)c1 (centres undefined) | -8.72
94 | CCN(CC)CCNc1c(-c2ccccc2)c(=O)c1=O | -0.107
95 | O=C(c1scc2c1OCCO2)N1CCOC(Cc2ccc(F)cc2)C1 (centres undefined) | -0.136
96 | CS(=O)(=O)N1C[C@H]2CCCN(Cc3cccs3)[C@H]2C1 | 6.54
97 | Cn1cc(C2CCCN2C(=O)CCn2ccc3ccccc32)cn1 (centres undefined) | 3.44
98 | CCn1ccnc1CN1CCCN(C(=O)c2cc[nH]n2)CC1 | 0.0306
99 | O=C(Cc1ccccc1)N1CCC2(CC(=O)N(c3ccsc3)C2)C1 (centres undefined) | -0.17
100 | NC(=O)c1cnc(NC2CC2)nc1CCNC(=O)CC1CCCC1 | -14.3
101 | CNC(=O)CN1CCOCC2(CN(CCC(F)(F)F)CCO2)C1 (centres undefined) | 4.91
102 | COc1cnc(C2(O)CCN(C(=O)c3ccncc3)CC2)c(OC)n1 | -4.69
103 | Cn1cc(CN2CCCC23CCN(C(=O)c2ccccc2)CC3)cn1 | -11.9
104 | Cc1nc(-c2nc(C(=O)N3CCOCC3)c3ccccn23)cn1C(C)C | -5.18
105 | Cc1ccc(-c2cn3c(n2)CO[C@@H](CNCc2cccnc2)C3)cc1 | 11
106 | Cc1nn2c(N3CCC(C#N)CC3)cc(-c3ccccc3)nc2c1C | 1.27
107 | Clc1ccc2cccnc2c1CNC1CCc2ncnn2C1 (centres undefined) | -5.27
108 | CCC(C)N(Cc1ccncc1)Cc1ccccc1Cn1cccn1 (centres undefined) | -11.3
109 | O=C(Nc1cccc(OCc2ccc(F)cc2)c1)C1COCCO1 (centres undefined) | -4.75
110 | O=C(c1cccc(S(=O)(=O)NCCCc2ncc[nH]2)c1)N1CCOCC1 | -9.14
111 | Cn1ccnc1CN1CCCN(C(=O)c2cccc(CC#N)c2)CC1 | 11.5
112 | CN(Cc1nccn1C)C(=O)c1cccc(CCC(C)(C)O)c1 | 7.23
113 | CCOc1ncccc1NC(=O)N1CCCC1c1cc(C)no1 (centres undefined) | -8.02
114 | CN(C)CCn1ccnc1C1CCCN(c2cc(N)ncn2)C1 (centres undefined) | 23.6
